Results from the supplement of paper PMC10307832.

Experiments:
Test in all cases: relative viability (nuclei count vs DMSO), 5 days (fraction); higher = more cells survive
TPCA-1 + Lapatinib = compound: C1=CC(=CC=C1C2=CC(=C(S2)NC(=O)N)C(=O)N)F [TPCA-1] + CS(=O)(=O)CCNCc1ccc(-c2ccc3ncnc(Nc4ccc(OCc5cccc(F)c5)c(Cl)c4)c3c2)o1 [Lapatinib] (partner 2 µM)
Method in brief: (§1)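 For relative viability, nuclei counts in treated wells were divided by those in vehicle wells. Lung cancer cell lines had been pin-tool dosed in 1536-well plates the day after seeding and cultured for 5 days, then fixed and stained in one step (final 0.05% Triton X-100, 1% formaldehyde, 1 ug/ml Hoechst) and imaged at 4×. Doses were one drug alone or a fixed anchor-drug dose plus five library-drug doses (not always all listed) in √10 steps, and values are duplicate-plate medians.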

[1] = compound: C1/C(=C\C2=CC=CS2)/C(=O)/C(=C/C3=CC=CS3)/C1 + O=C(c1cc(Cc2n[nH]c(=O)c3ccccc23)ccc1F)N1CCN(C(=O)C2CC2)CC1 [Olaparib] (partner 8 µM)
Method in brief: as §1

[2] = compound: C1/C(=C\C2=CC=CS2)/C(=O)/C(=C/C3=CC=CS3)/C1 + Cc1nc(NC(=O)N2CCC[C@H]2C(N)=O)sc1-c1ccnc(C(C)(C)C(F)(F)F)c1 [Alpelisib] (partner 2 µM)
Method in brief: as §1

TPCA-1 + Trametinib = compound: C1=CC(=CC=C1C2=CC(=C(S2)NC(=O)N)C(=O)N)F [TPCA-1] + CC(=O)Nc1cccc(-n2c(=O)n(C3CC3)c(=O)c3c(Nc4ccc(I)cc4F)n(C)c(=O)c(C)c32)c1 [Trametinib] (partner 0.02 µM)
Method in brief: as §1

Cell Line | relative viability (TPCA-1 + Lapatinib; first compound 0.04 µM) | relative viability (TPCA-1 + Lapatinib; first compound 0.1265 µM) | relative viability (TPCA-1 + Lapatinib; first compound 0.4 µM) | relative viability (TPCA-1 + Lapatinib; first compound 1.265 µM) | relative viability (TPCA-1 + Lapatinib; first compound 4 µM) | relative viability ([1]; first compound 0.2 µM) | relative viability ([1]; first compound 0.6325 µM) | relative viability ([1]; first compound 2 µM) | relative viability ([1]; first compound 6.325 µM) | relative viability ([1]; first compound 20 µM) | relative viability ([2]; first compound 0.2 µM) | relative viability ([2]; first compound 0.6325 µM) | relative viability ([2]; first compound 2 µM) | relative viability ([2]; first compound 6.325 µM) | relative viability ([2]; first compound 20 µM) | relative viability (TPCA-1 + Trametinib; first compound 0.04 µM) | relative viability (TPCA-1 + Trametinib; first compound 0.1265 µM) | relative viability (TPCA-1 + Trametinib; first compound 0.4 µM) | relative viability (TPCA-1 + Trametinib; first compound 1.265 µM) | relative viability (TPCA-1 + Trametinib; first compound 4 µM)
NCI-H2347 | 1.07 | 0.739 | 0.963 | 0.78 | 0.896 | 0.623 | 0.581 | 0.593 | 0.521 | 0.63 | 1.1 | 1.07 | 0.963 | 0.952 | 1.15 | 0.26 | 0.316 | 0.276 | 0.266 | 0.252
NCI-H2405 | 1.19 | 0.915 | 1.1 |  | 0.949 | 0.905 | 0.844 | 1.04 | 0.789 | 0.867 | 0.945 | 0.766 | 0.79 | 0.797 | 0.87 | 0.662 | 0.606 | 0.722 | 0.469 | 0.638
NCI-H3122 | 1.03 | 0.939 | 0.985 | 1.05 | 0.976 | 0.655 | 0.645 | 0.648 | 0.537 | 0.578 | 0.887 | 0.785 | 0.876 | 0.488 | 0.891 | 0.228 | 0.177 | 0.228 | 0.243 | 0.215
PC-3 [JPC-3] | 0.435 | 0.487 | 0.481 | 0.454 | 0.434 |  | 1.22 | 1.09 | 0.762 | 1.19 | 0.994 | 0.995 | 0.998 | 0.97 | 1.05 | 0.755 | 0.692 | 0.73 | 0.757 | 0.642
PC-14 | 0.336 | 0.327 | 0.321 | 0.394 | 0.299 | 0.289 | 0.28 | 0.239 | 0.192 | 0.31 | 0.95 | 0.898 | 0.889 | 0.676 | 0.995 | 0.885 | 0.687 | 0.79 | 0.705 | 0.57
RERF-LC-KJ | 0.966 | 0.79 | 0.808 | 0.809 | 0.765 | 0.948 | 0.956 | 0.869 | 0.724 | 0.637 | 0.73 | 0.89 | 0.748 | 0.705 | 0.815 | 0.852 | 0.786 | 0.89 | 0.756 | 0.732
SK-LU-1 | 0.799 | 0.841 | 0.888 | 0.698 | 0.569 | 0.427 | 0.34 | 0.541 | 0.443 | 0.514 | 1.18 | 1.07 | 1.11 | 0.817 | 1.06 | 0.532 | 0.452 | 0.474 | 0.396 | 0.263
SK-MES-1 | 0.479 | 0.402 | 0.429 | 0.471 | 0.34 | 0.792 | 0.781 | 0.696 | 0.669 | 0.729 | 1.04 | 0.912 | 0.879 | 0.854 | 0.798 | 0.536 | 0.524 | 0.507 | 0.429 | 0.39
SW 1573 | 0.829 | 1.04 | 1.17 | 1.18 | 1.19 | 0.394 | 0.455 | 0.556 | 0.435 | 0.248 | 0.785 | 0.905 | 0.838 | 0.547 | 0.757 | 0.611 | 0.569 | 0.535 | 0.516 | 0.545
